Earlier results on 1 compound are cited in US9402907B2, “Pharmaceutical composition containing diamine derivative” (DAIICHI SANKYO COMPANY, LIMITED, priority 2011, dated 2016).

Read-outs that look alike come from different tables or passages of the source.

Consider `CN1CCc2nc(C(=O)N[C@@H]3C[C@@H](C(=O)N(C)C)CC[C@@H]3NC(=O)C(=O)Nc3ccc(Cl)cn3)sc2C1` [Compound I, N^1-(5-chloropyridin-2-yl)-N^2-((1S,2R,4S)-4-[(dimethylamino)carbonyl]-2-{[(5-methyl-4,5,6,7-tetrahydrothiazolo[5,4-c]pyridin-2-yl)carbonyl]amino}cyclohexyl)ethanediamide], for which the solubility entry was “reduced solubility” (aqueous solution having a pH in the neutral region (e.g., a neutral buffer)) and “favorable solubility” (strongly acidic aqueous solution).
